Columns and labels:
Format in all cases: in vivo
[1] = test system: Colorado Potato Beetle (Leptinotarsa decemlineata) (2nd instar larvae); assay: Colorado potato beetle foliar spray test on eggplant, mortality; conditions: 96 h, 4 days after treatment, Table E; for mortality at 1 ppm: Concentration 1 ppm; for mortality at 10 ppm: Concentration 10 ppm; for mortality at 30 ppm: Concentration 30 ppm
Experimental: (§1) The active compounds were formulated in cyclohexanone as a 10,000 ppm solution supplied in tubes. The tubes were inserted into an automated electrostatic sprayer equipped with an atomizing nozzle and they served as stock solutions for which lower dilutions were made in 50% acetone:50% water (v/v). A nonionic surfactant (Kinetic®) was included in the solution at a volume of 0.01% (v/v).
Eggplants were grown 2 plants to a pot and were selected for treatment at the 1st true leaf stage. Test solutions were sprayed onto the foliage by an automated electrostatic plant sprayer equipped with an atomizing spray nozzle. The plants were dried in the sprayer fume hood and then removed from the sprayer. The treated foliage was then cut and removed from the pot and placed in a Petri dish lined with moistened filter paper. Five beetle larvae were introduced into each Petri dish and the dish was covered by a Petri dish lid. Petri dishes were maintained in a growth room at about 25° C. and about 20-40% relative humidity for 4 days, avoiding direct exposure to fluorescent light (24 hour photoperiod) to prevent trapping of heat inside the dishes. Mortality and reduced feeding were assessed 4 days after treatment, compared to untreated control plants.

[2] = test system: Southern Armyworm (Spodoptera eridiana); 2nd Instar Larvae; assay: Southern armyworm foliar spray test on lima bean, mortality; conditions: for mortality at 1 ppm: Concentration 1 ppm; for mortality at 1 ppm / mortality at 10 ppm / mortality at 30 ppm: southern armyworm, Table D; for mortality at 10 ppm: Concentration 10 ppm; for mortality at 30 ppm: Concentration 30 ppm; for mortality at 500 ppm: Spodoptera, 96 h, 4 days after treatment, lima bean foliage spray, read-out: mortality in comparison with untreated controls
Experimental: as §1
Lima bean plants (variety Sieva) were grown 2 plants to a pot and selected for treatment at the 1st true leaf stage. Test solutions were sprayed onto the foliage by an automated electrostatic plant sprayer equipped with an atomizing spray nozzle. The plants were dried in the sprayer fume hood and then removed from the sprayer. Each pot was placed into perforated plastic bags with a zip closure. About 10 to 11 armyworm larvae were placed into the bag and the bags zipped closed. Test plants were maintained in a growth room at about 25° C. and about 20-40% relative humidity for 4 days, avoiding direct exposure to fluorescent light (24 hour photoperiod) to prevent trapping of heat inside the bags. Mortality and reduced feeding were assessed 4 days after treatment, compared to untreated control plants.

[3] = test system: Green Peach Aphid (Myzus persicae); assay: Green peach aphid spray test on bell pepper plants, mortality; conditions: 120 h, after 5 days, sprayed bell pepper plants, read-out: mortality in comparison with untreated controls
Description: as §1
Bell pepper plants at the first true-leaf stage were infested prior to treatment by placing heavily infested leaves from the main colony on top of the treatment plants. Aphids were allowed to transfer overnight to accomplish an infestation of 30-50 aphids per plant and the host leaves were removed. The infested plants were then sprayed by an automated electrostatic plant sprayer equipped with an atomizing spray nozzle. The plants were dried in the sprayer fume hood, removed, and then maintained in a growth room under fluorescent lighting in a 24-hr photoperiod at about 25° C. and about 20-40% relative humidity. Aphid mortality on the treated plants, relative to mortality on untreated control plants, was determined after 5 days.

[4] = test system: TOBACCO budworm (Heliothis virescens); assay: Tobacco budworm microtiter diet test, egg and larval mortality; conditions: 120 h, 5 days, insect diet, read-out: mortality in comparison with untreated controls
Experimental: For evaluating control of tobacco budworm (Heliothis virescens) the test unit consisted of 96-well-microtiter plates containing an insect diet and 15-25 H. virescens eggs. The compounds were formulated using a solution containing 75% v/v water and 25% v/v DMSO. Different concentrations of formulated compounds were sprayed onto the insect diet at 10 μl, using a custom built micro atomizer, at two replications.
After application, microtiter plates were incubated at about 28±1° C./and about 80±5% relative humidity for 5 days. Egg and larval mortality was then visually assessed.

[5] = test system: Boll weevil (Anthonomus grandis); assay: Boll weevil microtiter diet test, egg and larval mortality; conditions: 120 h, 5 days, insect diet, read-out: mortality in comparison with untreated controls
Experimental: For evaluating control of boll weevil (Anthonomus grandis) the test unit consisted of 24-well-microtiter plates containing an insect diet and 20-30 A. grandis eggs.
The compounds were formulated using a solution containing 75% v/v water and 25% v/v DMSO. Different concentrations of formulated compounds were sprayed onto the insect diet at 20 μl, using a custom built micro atomizer, at two replications.
After application, microtiter plates were incubated at about 23±1° C. and about 50±5% relative humidity for 5 days. Egg and larval mortality was then visually assessed.

[6] = test system: Diamond Backmoth (Plutella xylostella); assay: Diamond backmoth leaf-dip test, mortality; conditions: 72 hours after treatment, 3rd instar larvae on dipped cabbage leaves, read-out: mortality in comparison with untreated controls
Experimental: The active compound was dissolved at the desired concentration in a mixture of 1:1 (vol:vol) distilled water:aceteone. Surfactant (Alkamuls® EL 620) was added at a rate of 0.1% (vol/vol). The test solution was prepared at the day of use.
Leaves of cabbage were dipped in test solution and air-dried. Treated leaves were placed in petri dishes lined with moist filter paper and inoculated with ten 3rd instar larvae. Mortality was recorded 72 hours after treatment. Feeding damages were also recorded using a scale of 0-100%.

[7] = test system: Vetch aphid (Megoura viciae); assay: Vetch aphid broad bean leaf disk test, mortality; conditions: foliar, 120 h, 5 days, adult aphids on broad bean leaf disks, read-out: mortality in comparison with untreated controls
Experimental: For evaluating control of vetch aphid (Megoura viciae) through contact or systemic means the test unit consisted of 24-well-microtiter plates containing broad bean leaf disks.
The compounds were formulated using a solution containing 75% v/v water and 25% v/v DMSO. Different concentrations of formulated compounds were sprayed onto the leaf disks at 2.5 μl, using a custom built micro atomizer, at two replications.
After application, the leaf disks were air-dried and 5-8 adult aphids placed on the leaf disks inside the microtiter plate wells. The aphids were then allowed to suck on the treated leaf disks and incubated at about 23±1° C. and about 50±5% relative humidity for 5 days. Aphid mortality and fecundity was then visually assessed.

[8] = test system: Mediterranean Fruitfly (Ceratitis capitata); assay: Mediterranean fruitfly microtiter diet test, egg and larval mortality; conditions: 120 h, 5 days, insect diet, read-out: mortality in comparison with untreated controls
Experimental: For evaluating control of Mediterranean fruitfly (Ceratitis capitata) the test unit consisted of microtiter plates containing an insect diet and 50-80 C. capitata eggs.
The compounds were formulated using a solution containing 75% v/v water and 25% v/v DMSO. Different concentrations of formulated compounds were sprayed onto the insect diet at 5 μl, using a custom built micro atomizer, at two replications.
After application, microtiter plates were incubated at about 28±1° C. and about 80±5% relative humidity for 5 days. Egg and larval mortality was then visually assessed.

[9] = test system: Cowpea Aphid (Aphis Craccivora); assay: Cowpea aphid spray test on potted cowpea plants, mortality; conditions: after 72 hours, sprayed cowpea plants, read-out: mortality in comparison with untreated controls
Experimental: The active compound was dissolved at the desired concentration in a mixture of 1:1 (vol:vol) distilled water:acetone. Surfactant (Alkamuls® EL 620) is added at a rate of 0.1% (vol/vol). The test solution was prepared at the day of use.
Potted cowpea plants were colonized with approximately 50-100 aphids of various stages by manually transferring a leaf tissue cut from infested plant 24 hours before application. Plants were sprayed after the pest population has been recorded. Treated plants were maintained on light carts at about 28° C. Percent mortality was assessed after 72 hours.

[10] = test system: Orchid Thrips (dichromothrips corbetti); assay: Orchid thrips floral-immersion test, mortality; conditions: 72 hours after treatment, adult thrips, read-out: mortality in comparison with untreated controls
Experimental: Dichromothrips corbetti adults used for bioassay were obtained from a colony maintained continuously under laboratory conditions. For testing purposes, the test compound was diluted in a 1:1 mixture of acetone:water (vol:vol), plus 0.01% vol/vol Alkamuls® EL 620 surfactant.
Thrips potency of each compound was evaluated by using a floral-immersion technique. Plastic petri dishes were used as test arenas. All petals of individual, intact or chid flowers were dipped into treatment solution and allowed to dry. Treated flowers were placed into individual petri dishes along with about 20 adult thrips. The petri dishes were then covered with lids. All test arenas were held under continuous light and a temperature of about 28° C. for duration of the assay. After 3 days, the numbers of live thrips were counted on each flower, and along inner walls of each petri dish. The percent mortality was recorded 72 hours after treatment.

CONC(=O)c1cc(Cl)cc(C)c1NC(=O)c1cc(Br)nn1-c1ncccc1Cl [Compound X-1, 5-bromo-2-(3-chloro-pyridin-2-yl)-2H-pyrazole 3-carboxylic acid (4-chloro-2-methoxycarbamoyl-6-methyl-phenyl)amide, reference compound]
mortality at 1 ppm [1]: 0%
mortality at 10 ppm [1]: 100%
mortality at 30 ppm [1]: 100%
mortality at 1 ppm [2]: 0%
mortality at 10 ppm [2]: 100%
mortality at 30 ppm [2]: 100%

CNC(=O)CONC(=O)c1cc(Cl)cc(C)c1NC(=O)c1cc(Br)nn1-c1ncccc1Cl [Compound 1-3, 5-bromo-2-(3-chloro-pyridin-2-yl)-2H-pyrazole-3-carboxylic acid (4-chloro-2-methyl-6-methylcarbamoylmethoxycarbamoyl-phenyl)-amide]
mortality at 2500 ppm [3]: > 75%
mortality at 1 ppm [1]: 100%
mortality at 10 ppm [1]: 100%
mortality at 30 ppm [1]: 100%
mortality at 2500 ppm [4]: > 75%
mortality at 2500 ppm [5]: > 75%
mortality at 1 ppm [2]: 100%
mortality at 10 ppm [2]: 100%
mortality at 30 ppm [2]: 100%
mortality at 500 ppm [2]: 100%
mortality at 500 ppm [6]: 100%
mortality at 2500 ppm [7]: > 75%
mortality at 2500 ppm [8]: > 75%

Cc1cc(Cl)cc(C(=O)NNCC(=O)NCc2ccccc2)c1NC(=O)c1cc(Br)nn1-c1ncccc1Cl [Compound 1-11, 5-bromo-2-(3-chloro-pyridin-2-yl)-2H-pyrazole-3-carboxylic acid {2-[N′-(benzylcarbamoyl-methyl)-hydrazinocarbonyl]-4-chloro-6-methyl-phenyl}-amide]
mortality at 2500 ppm [3]: > 75%
mortality at 2500 ppm [4]: > 75%
mortality at 2500 ppm [5]: > 75%
mortality at 500 ppm [2]: 100%
mortality at 500 ppm [6]: 100%
mortality at 2500 ppm [7]: > 75%
mortality at 2500 ppm [8]: > 75%

CNC(=O)CONC(=O)c1cc(Br)cc(Br)c1NC(=O)c1cc(Br)nn1-c1ncccc1Cl [Compound 1-10, 5-bromo-2-(3-chloro-pyridin-2-yl)-2H-pyrazole-3-carboxylic acid (2,4-dibromo-6-methylcarbamoylmethoxycarbamoyl-phenyl)-amide]
mortality at 2500 ppm [3]: > 75%
mortality at 2500 ppm [4]: > 75%
mortality at 2500 ppm [5]: > 75%
mortality at 500 ppm [2]: 100%
mortality at 500 ppm [9]: > 75%
mortality at 500 ppm [6]: 100%
mortality at 2500 ppm [7]: > 75%
mortality at 2500 ppm [8]: > 75%
mortality at 500 ppm [10]: > 75%
